In patent US20070190554A1, “Novel binding site for retigabine on KCNQ5” (priority 2006, published 2007):
Entries after “also recorded” stand apart in the source; their conditions may differ. Where two headings read alike, the source gives them in different places.

Key:
[1] = biological target: T1, KCNQ5(A269T) (Homo sapiens, UniProt Q9NR82, A269T); experiment: Two-electrode voltage clamp in Xenopus oocytes, S5 point mutant KCNQ5(A269T); type: cell-based; details: 50 μM retigabine; FIG. 3 bottom panel
T1 construct: mutations in KCNQ5 were generated for each of 7 residues modified individually to the corresponding in KCNQ1; expressed in transfected cells; host or cells: Xenopus oocytes injected with cRNA
Procedure: (§1) FIG. 3 Mutagenesis analysis of S5 domain in KCNQ5. Sequence alignment of all five members in KCNQ family is shown on the top. The most diverse residues between KCNQ1 and the other members are highlighted in bold case and the corresponding residues in KCNQ5 were individually mutated to their counterparts in KCNQ1. Then each mutant with single mutation was tested with 50 μM retigabine and the fold increase (IΔ/I0) in current amplitude was plotted in the graph on bottom. In all mutants, n equals 6.
(§2) The gene sequences were confirmed by DNA sequencing. […] Electrophysiological recording was performed 3-7 days after injection.
(§3) The S5 domains of all five KCNQ members were sequence aligned and searched for unique amino acid residues that might account for the lack of KCNQ1's response to retigabine. As shown in FIG. 3 upper panel, there are ten unmatched residues between KCNQ1 and KCNQ5. Seven of them highlighted in FIG. 3 may be unique for KCNQ1. Therefore, mutations in KCNQ5 were generated for each of 7 residues modified individually to the corresponding in KCNQ1. One mutant, KCNQ5(F282Y) lost its functionality when expressed in oocytes. […] Retigabine's effect on each of these mutants was then tested.

[2] = biological target: KCNQ1 wild-type (Homo sapiens, UniProt P51787); details: FIG. 4A
Text: The steady state amplitudes of the currents evoked by a series of depolarized voltage pulses from −100 to 80 mV in 10 mV increment were normalized to the level evoked by the membrane potential of 80 mV in the control group. The holding potential was −100 mV.
Expression of KCNQ5 and KCNQ1 channels into Xenopus oocytes—Human KCNQ5 and KCNQ1 genes were cloned into a pKSM vector that has been engineered specifically for oocyte expression. The gene sequences were confirmed by DNA sequencing. […] The constructs were linearized by XbaI restriction enzyme (NEB, Beverly, Mass.). In vitro transcription was performed with an mMESSAGE mMACHINE® kit (Ambion, Austin, Tex.) and the cRNA was purified by phenol extraction. Xenopus oocytes were injected with 46 nl solution containing approximately 9.2 ng cRNA using a Drumond Nanojet oocyte injector (Drummond Scientific Co., Broomall, Pa.). Electrophysiological recording was performed 3-7 days after injection.
Electrophysiology—All experiments were performed at room temperature (22-23° C.) using conventional oocyte two-electrode voltage clamp recording (TEVC). […]
Data analysis—Current amplitude was measured online using HEKA Pulsefit 8.5 software. […] Data were expressed as mean±SE, and the paired student t test was performed. […]

[3] = biological target: Wild type KCNQ5 (Homo sapiens, UniProt Q9NR82); details: cited from earlier work
[4] = biological target: KCNQ5 containing an S5-S6 transmembrane domain from KCNQ1 (Homo sapiens, UniProt Q9NR82, A261I/A269T/A329S/A332S/F282Y/G330C/G335A/I307V/INS291VNESG/K264Q/K293V/L283F/L309V/L320Q/L323V/L326T/L327I/L333V/L334F/N292R/R325K/S263R/S296G/S328A/T297S/T306V/T318V/V276G/V287A/W270L/Y260F); details: 50 μM retigabine
Text: Differences were considered to be significant at P<0.05.
All mutations were confirmed by DNA sequencing.

[5] = biological target: KCNQ5 containing an S5 transmembrane domain from KCNQ1 (Homo sapiens, UniProt Q9NR82, A261I/A269T/F282Y/K264Q/L283F/S263R/V276G/V287A/W270L/Y260F); details: 50 μM retigabine
Procedure: Expression of KCNQ5 and KCNQ1 channels into Xenopus oocytes—Human KCNQ5 and KCNQ1 genes were cloned into a pKSM vector that has been engineered specifically for oocyte expression. […] Xenopus oocytes were injected with 46 nl solution containing approximately 9.2 ng cRNA using a Drumond Nanojet oocyte injector (Drummond Scientific Co., Broomall, Pa.). Electrophysiological recording was performed 3-7 days after injection.
Electrophysiology—All experiments were performed at room temperature (22-23° C.) using conventional oocyte two-electrode voltage clamp recording (TEVC). The recording electrodes were pulled from 1.5 mm glass pipette using a Sutter P-97 micropipette puller (Sutter Instrument, Novato, Calif.) and filled with 3M KCl. The pipette tip was carefully broken off to acquire the electrode resistance at 0.5-1 Mohm. A Dagan CA-1 amplifier (Dagan Corporation, Minneapolis Minn.) was used and the holding potential was clamped at −100 mV. To test voltage dependence of channel activation, a series of depolarized voltage pulses was applied. To observe the time course of retigabine's effect, a single (3 sec) voltage pulse at 40 mV was applied repeatedly at 15 sec intervals. A HEKA computer interface (HEKA Elektronik, Lambrecht, Germany) with Pulse 8.5 software was used to control the amplifier and digitized the data for analysis. Solutions and Chemicals—ND96 solution containing (in mM) NaCl, 96, KCl, 2, CaCl2, 1.8, MgCl2, 1, HEPES, 10 was used for oocyte incubation and recording. Retigabine was made as a stock solution in DMSO at 50 mM and diluted into desired concentrations just before application in experiments. […] In all experiments, DMSO was used less than 0.4%.
Compounds were applied to the cells via a fast bath perfusion system (ALA Scientific Instruments, Westbury, N.Y.), and a bath solution change was completed within 10 seconds.
Data analysis—Current amplitude was measured online using HEKA Pulsefit 8.5 software. To acquire channel conductance from macroscopic current, the K^+ reversal potential was approximated to be −80 mV in ND96 solution and the following equation was applied: G=I/(V+80), where G is the whole oocyte conductance, I is the whole oocyte current, and V is the voltage used to induce the current. Data were expressed as mean±SE, and the paired student t test was performed. Differences were considered to be significant at P<0.05.
To further dissect the action site of retigabine, the S5-S6 transmembrane domain from KCNQ1 was divided into two parts, the S5 transmembrane domain and the S6 transmembrane domain (with linker), and the corresponding chimeric channels of KCNQ5 contained S5 transmembrane domain or S6 transmembrane domain from KCNQ1.

[6] = biological target: rat KCNQ5 polypeptide (Rattus norvegicus, UniProt F1LY25); details: Jensen et al. 2005; cited from earlier work
[7] = biological target: T2, KCNQ1(L171W) (Homo sapiens, UniProt P51787, L266W); experiment: Two-electrode voltage clamp in Xenopus oocytes, KCNQ1(L171W)
T2 sequence (P51787 with tags, fused parts or gaps L266W): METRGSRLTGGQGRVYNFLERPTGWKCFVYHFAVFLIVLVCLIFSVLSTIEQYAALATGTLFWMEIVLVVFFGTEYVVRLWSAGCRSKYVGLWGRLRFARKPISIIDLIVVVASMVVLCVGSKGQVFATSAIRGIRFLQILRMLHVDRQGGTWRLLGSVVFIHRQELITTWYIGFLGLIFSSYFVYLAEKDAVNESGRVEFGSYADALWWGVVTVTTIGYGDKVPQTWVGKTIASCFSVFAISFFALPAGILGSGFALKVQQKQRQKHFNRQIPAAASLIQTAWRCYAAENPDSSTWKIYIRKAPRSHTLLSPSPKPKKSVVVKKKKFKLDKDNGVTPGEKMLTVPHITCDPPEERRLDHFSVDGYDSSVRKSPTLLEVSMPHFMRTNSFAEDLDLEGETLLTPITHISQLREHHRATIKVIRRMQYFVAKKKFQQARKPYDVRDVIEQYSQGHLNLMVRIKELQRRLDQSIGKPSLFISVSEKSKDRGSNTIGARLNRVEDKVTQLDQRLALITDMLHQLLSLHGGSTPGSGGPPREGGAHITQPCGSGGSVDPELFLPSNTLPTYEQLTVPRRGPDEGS

[8] = biological target: T3, KCNQ5(W270L) (Homo sapiens, UniProt Q9NR82, W270L); experiment: Two-electrode voltage clamp in Xenopus oocytes, S5 point mutant KCNQ5(W270L); type: cell-based; details: 50 μM retigabine; FIG. 3 bottom panel
T3 construct: expressed in transfected cells; host or cells: Xenopus oocytes injected with cRNA
Procedure: as §1, §2, §3

[9] = biological target: KCNQ1 (Homo sapiens, UniProt P51787); details: background statement; cited from earlier work
[10] = biological target: mouse KCNQ5 polypeptide (Mus musculus, UniProt Q9JK45); details: Jensen et al. 2005; cited from earlier work
Sequence of mouse KCNQ5 polypeptide (Q9JK45 whole entry): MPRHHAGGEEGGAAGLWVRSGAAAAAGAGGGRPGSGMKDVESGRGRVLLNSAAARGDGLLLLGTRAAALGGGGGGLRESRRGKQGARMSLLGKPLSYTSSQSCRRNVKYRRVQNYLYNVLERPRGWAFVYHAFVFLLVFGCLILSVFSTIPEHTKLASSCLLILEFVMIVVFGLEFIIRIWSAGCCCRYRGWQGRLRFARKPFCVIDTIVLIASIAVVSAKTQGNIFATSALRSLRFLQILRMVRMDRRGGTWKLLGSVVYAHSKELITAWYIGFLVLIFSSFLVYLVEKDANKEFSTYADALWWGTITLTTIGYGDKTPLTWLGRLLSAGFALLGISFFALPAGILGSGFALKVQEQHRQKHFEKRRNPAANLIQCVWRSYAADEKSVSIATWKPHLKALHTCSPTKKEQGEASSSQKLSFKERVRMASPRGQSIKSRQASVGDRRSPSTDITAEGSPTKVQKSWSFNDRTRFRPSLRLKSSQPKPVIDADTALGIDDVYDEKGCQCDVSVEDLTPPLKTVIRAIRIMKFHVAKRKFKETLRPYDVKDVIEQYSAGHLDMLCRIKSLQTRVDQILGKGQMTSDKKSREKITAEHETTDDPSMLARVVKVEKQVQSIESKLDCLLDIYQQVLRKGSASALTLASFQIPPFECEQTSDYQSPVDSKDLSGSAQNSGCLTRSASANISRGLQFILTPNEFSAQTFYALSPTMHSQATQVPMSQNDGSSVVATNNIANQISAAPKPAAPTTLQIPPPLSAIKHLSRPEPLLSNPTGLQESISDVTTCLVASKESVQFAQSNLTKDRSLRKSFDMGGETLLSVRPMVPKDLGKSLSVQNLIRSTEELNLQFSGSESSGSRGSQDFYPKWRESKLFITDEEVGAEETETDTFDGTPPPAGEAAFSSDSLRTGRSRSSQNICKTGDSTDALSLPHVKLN

Sequence of KCNQ5 containing an S5 transmembrane domain from KCNQ1 (Q9NR82 whole entry Y260F/A261I/S263R/K264Q/A269T/W270L/V276G/F282Y/L283F/V287A, the tested form may be a part): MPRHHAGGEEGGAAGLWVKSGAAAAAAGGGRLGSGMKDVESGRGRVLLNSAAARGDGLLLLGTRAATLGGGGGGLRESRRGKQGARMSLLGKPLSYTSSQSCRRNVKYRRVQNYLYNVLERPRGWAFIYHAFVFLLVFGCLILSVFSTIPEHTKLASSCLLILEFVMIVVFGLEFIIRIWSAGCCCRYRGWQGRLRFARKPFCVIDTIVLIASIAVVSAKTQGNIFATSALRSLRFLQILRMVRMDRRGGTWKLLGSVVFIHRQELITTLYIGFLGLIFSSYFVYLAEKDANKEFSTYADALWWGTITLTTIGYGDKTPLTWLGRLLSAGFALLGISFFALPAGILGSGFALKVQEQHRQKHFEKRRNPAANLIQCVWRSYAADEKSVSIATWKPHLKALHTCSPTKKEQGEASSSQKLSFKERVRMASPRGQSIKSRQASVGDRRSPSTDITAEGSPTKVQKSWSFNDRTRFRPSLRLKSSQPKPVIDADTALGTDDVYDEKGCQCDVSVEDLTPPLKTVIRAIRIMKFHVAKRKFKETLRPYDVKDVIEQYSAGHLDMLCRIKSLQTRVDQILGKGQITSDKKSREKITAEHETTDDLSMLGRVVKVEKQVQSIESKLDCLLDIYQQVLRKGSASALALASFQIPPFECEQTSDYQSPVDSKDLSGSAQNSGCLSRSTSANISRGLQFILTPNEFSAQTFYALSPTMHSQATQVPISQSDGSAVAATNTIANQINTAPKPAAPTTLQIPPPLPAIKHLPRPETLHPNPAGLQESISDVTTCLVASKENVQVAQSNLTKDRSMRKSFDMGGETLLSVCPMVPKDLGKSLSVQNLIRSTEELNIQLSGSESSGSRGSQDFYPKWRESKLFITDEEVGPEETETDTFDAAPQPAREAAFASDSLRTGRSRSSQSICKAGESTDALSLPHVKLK
Sequence of KCNQ5 containing an S5-S6 transmembrane domain from KCNQ1 (Q9NR82 other isoform, or with tags, fused parts or gaps with the stated changes): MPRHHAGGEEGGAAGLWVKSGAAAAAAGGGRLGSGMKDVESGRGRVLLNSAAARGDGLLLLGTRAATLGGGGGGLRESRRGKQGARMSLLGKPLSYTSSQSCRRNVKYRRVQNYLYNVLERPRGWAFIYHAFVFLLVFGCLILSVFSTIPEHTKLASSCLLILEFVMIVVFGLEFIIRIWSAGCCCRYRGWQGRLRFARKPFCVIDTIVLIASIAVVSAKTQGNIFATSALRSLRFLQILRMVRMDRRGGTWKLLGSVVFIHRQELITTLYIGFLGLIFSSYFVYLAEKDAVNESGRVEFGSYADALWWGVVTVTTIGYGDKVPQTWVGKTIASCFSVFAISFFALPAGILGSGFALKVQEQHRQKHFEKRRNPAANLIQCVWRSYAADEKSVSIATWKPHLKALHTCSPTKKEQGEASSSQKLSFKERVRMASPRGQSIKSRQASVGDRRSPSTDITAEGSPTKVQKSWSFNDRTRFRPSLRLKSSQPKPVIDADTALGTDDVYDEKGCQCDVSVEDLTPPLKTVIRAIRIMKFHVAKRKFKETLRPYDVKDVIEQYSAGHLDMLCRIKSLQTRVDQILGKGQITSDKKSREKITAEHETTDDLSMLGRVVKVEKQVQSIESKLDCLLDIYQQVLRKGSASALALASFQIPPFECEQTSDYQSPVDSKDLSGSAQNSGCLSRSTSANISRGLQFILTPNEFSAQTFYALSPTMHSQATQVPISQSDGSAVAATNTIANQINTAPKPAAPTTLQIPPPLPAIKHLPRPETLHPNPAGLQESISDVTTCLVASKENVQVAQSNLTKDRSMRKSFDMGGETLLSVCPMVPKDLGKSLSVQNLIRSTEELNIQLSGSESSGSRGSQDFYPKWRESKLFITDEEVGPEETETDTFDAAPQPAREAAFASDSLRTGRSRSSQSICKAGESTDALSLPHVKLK
Sequence of Wild type KCNQ5 (Q9NR82 whole entry, the tested form may be a part): as the sequence (Q9NR82 whole entry Y260F/A261I/S263R/K264Q/A269T/W270L/V276G/F282Y/L283F/V287A, the tested form may be a part) above, with F260Y, I261A, R263S, Q264K, T269A, L270W, G276V, Y282F, F283L, A287V counted along it
T3 sequence (Q9NR82 whole entry W270L): as the sequence (Q9NR82 whole entry Y260F/A261I/S263R/K264Q/A269T/W270L/V276G/F282Y/L283F/V287A, the tested form may be a part) above, with F260Y, I261A, R263S, Q264K, T269A, G276V, Y282F, F283L, A287V counted along it
T1 sequence (Q9NR82 whole entry A269T): as the sequence (Q9NR82 whole entry Y260F/A261I/S263R/K264Q/A269T/W270L/V276G/F282Y/L283F/V287A, the tested form may be a part) above, with F260Y, I261A, R263S, Q264K, L270W, G276V, Y282F, F283L, A287V counted along it
Sequence of rat KCNQ5 polypeptide (F1LY25 1-951): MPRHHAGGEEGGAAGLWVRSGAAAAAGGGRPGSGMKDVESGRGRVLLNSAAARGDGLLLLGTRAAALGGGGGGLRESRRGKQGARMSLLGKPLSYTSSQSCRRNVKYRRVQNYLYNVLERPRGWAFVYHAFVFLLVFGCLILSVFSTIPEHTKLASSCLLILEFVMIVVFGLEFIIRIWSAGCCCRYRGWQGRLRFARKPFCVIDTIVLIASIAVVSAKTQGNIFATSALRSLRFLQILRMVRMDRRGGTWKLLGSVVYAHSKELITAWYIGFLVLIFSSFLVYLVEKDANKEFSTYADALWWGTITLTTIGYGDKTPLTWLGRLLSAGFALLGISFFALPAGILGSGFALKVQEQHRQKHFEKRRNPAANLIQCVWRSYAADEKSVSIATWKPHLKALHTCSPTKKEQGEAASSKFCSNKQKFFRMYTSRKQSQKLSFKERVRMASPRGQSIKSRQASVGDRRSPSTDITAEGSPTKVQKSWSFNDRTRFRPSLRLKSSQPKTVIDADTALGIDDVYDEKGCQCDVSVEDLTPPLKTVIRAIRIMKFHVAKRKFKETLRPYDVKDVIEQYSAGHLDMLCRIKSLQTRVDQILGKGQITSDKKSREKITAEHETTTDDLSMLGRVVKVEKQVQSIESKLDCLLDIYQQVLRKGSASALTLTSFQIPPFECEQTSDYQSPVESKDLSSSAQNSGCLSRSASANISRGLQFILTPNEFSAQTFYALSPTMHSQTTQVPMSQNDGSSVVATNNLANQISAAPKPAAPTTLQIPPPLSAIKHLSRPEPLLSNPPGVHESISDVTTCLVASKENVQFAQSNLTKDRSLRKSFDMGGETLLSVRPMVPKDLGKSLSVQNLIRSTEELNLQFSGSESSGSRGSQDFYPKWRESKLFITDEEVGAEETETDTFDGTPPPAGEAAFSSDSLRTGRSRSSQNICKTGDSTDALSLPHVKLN

CCOC(=O)Nc1ccc(NCc2ccc(F)cc2)cc1N [retigabine, N-(2-amino-4-(4-fluorobenzylamino)-phenyl)carbamic acid ethyl ester]
response to retigabine (fold increase IΔ/I0 in current amplitude) [1]: significantly less response | response of channel current ([2]; 50 μM retigabine): no significant response | response of channel current ([2]; 200 μM retigabine): slightly inhibitory response | responsiveness of the channel to retigabine ([3]; Wickendon et al. 2001): responsive | opening of KCNQ channels ([3]; background statement): open | current (I)-voltage relationship in the absence vs presence of retigabine ([4]; 5 min after the application, p>0.05): No significant difference | change of current amplitude and voltage dependent activation ([4]; 5 min application period, FIG. 1C): neither current amplitude nor voltage dependent activation changed significantly | effect on channel activities ([4]; oocytes, FIGS. 1A and 1B): no longer augmented the channel activities | channel current induced by depolarization to 40 mV ([5]; 5 min of bath application): remained unchanged | current amplitude and voltage dependence of the currents (I-V curves before and after treatment) ([5]; FIG. 2A right panel, FIG. 2C): Neither current amplitude nor voltage dependence of the currents was modified | effect on the mutant channel ([5]; FIG. 2B): no longer had effect | current (I)-voltage relationship in the absence vs presence of retigabine ([5]; p>0.05): No significant difference | sensitivity of the channel to retigabine [6]: sensitive | steady state current amplitude ([7]; 50 μM retigabine, FIG. 4B): clearly reduced | voltage dependence of channel activation ([7]; FIG. 4D and inset (200 μM)): modified the voltage dependence of channel activation | activation kinetics of the current ([7]; current evoked at 80 mV, FIG. 4C): from a single to a double exponential activation time course | kind of effect on the channel (activated or blocked) ([7]; oocytes, TEVC): blocked | inhibition at 200 µM ([7]; read-out: inhibition of the steady-state current): 62.5% | response to retigabine (fold increase IΔ/I0 in current amplitude) [8]: significantly less response; also recorded: completely lost the response | enhancing effect on the channel [9]: no enhancing effect | sensitivity of the channel to retigabine [10]: sensitive
